According to patent publication US20240132513A1, “BENZAZEPINE DERIVATIVES, COMPOSITIONS, AND METHODS FOR TREATING COGNITIVE IMPAIRMENT” (AGENEBIO, INC., priority 2022, published 2024):
“Also recorded” adds a separate entry of the source.

Tests used:
aged-impaired (AI) rats [1] = assay: Radial Arm Maze (RAM) behavioral task, spatial memory retention; type: in vivo, rat
Description: […] RAM behavioral tasks were performed on eight AI rats. All five treatment conditions (vehicle and four dosage levels) were tested on all eight rats.
The RAM apparatus used consisted of eight equidistantly-spaced arms. An elevated maze arm (7 cm width×75 cm length) projected from each facet of an octagonal center platform (30 cm diameter, 51.5 cm height). Clear side walls on the arms were 10 cm high and were angled at […] to form a trough. A food well (4 cm diameter, 2 cm deep) was located at the distal end of each arm. Froot Loops™ (Kellogg Company) were used as rewards. Blocks constructed of Plexiglas™ (30 cm height×12 cm width) could be positioned to prevent entry to any arm. Numerous extra maze cues surrounding the apparatus were also provided.
The AI rats were initially subjected to a pre-training test (Chappell et al. Neuropharmacology 37: 481-487, 1998). The pre-training test consisted of a habituation phase (4 days), a training phase on the standard win-shift task (18 days) and another training phase (14 days) in which a brief delay was imposed between presentation of a subset of arms designated by the experimenter (e.g., 5 arms available and 3 arms blocked) and completion of the eight-arm win-shift task (i.e., with all eight arms available).
In the habituation phase, rats were familiarized to the maze for an 8-minute session on four consecutive days. In each of these sessions, food rewards were scattered on the RAM, initially on the center platform and arms and then progressively confined to the arms. After this habituation phase, a standard training protocol was used, in which a food pellet was located at the end of each arm. Rats received one trial each day for 18 days. Each daily trial terminated when all eight food pellets had been obtained or when either 16 choices were made, or 15 minutes had elapsed. After completion of this training phase, a second training phase was carried out in which the memory demand was increased by imposing a brief delay during the trial. At the beginning of each trial, three arms of the eight-arm maze were blocked. Rats were allowed to obtain food on the five arms to which access was permitted during this initial “information phase” of the trial. Rats were then removed from the maze for 60 seconds, during which time the barriers on the maze were removed, thus allowing access to all eight arms. Rats were then placed back onto the center platform and allowed to obtain the remaining food rewards during this “retention test” phase of the trial. The identity and configuration of the blocked arms varied across trials.
The number of “errors” the AI rats made during the retention test phase was tracked. […]

GABAA α5 receptor = molecular target: T1, GABAA α5 receptor (Rattus norvegicus, UniProt P19969); assay: GABAA α5 receptor occupancy with Ro 15-4513 tracer; type: in vivo, Long Evans rats; conditions: for Ro 15-4513 binding in hippocampus / Ro 15-4513 levels/binding in cerebellum: 0.01-10 mg/kg; for % RO (L-655,708 Method): young Long Evans rats
T1 construct: from tissue; host or cells: rat brain in vivo; hippocampus versus cerebellum
Source text: Food and water were available ad libitum.

α5-containing GABAA R = α5-containing GABAA R (Homo sapiens, UniProt P18507+P31644); conditions: EC20; cited from earlier work
aged-impaired (AI) rats [2] = assay: Morris water maze behavioral task; type: in vivo, rat; conditions: 100 μg ICV
Description: The effects of 6,6 dimethyl-3-(3-hydroxypropyl)thio-1-(thiazol-2-yl)-6,7-dihydro-2-benzothiophen-4(5H)-one on the in vivo spatial memory retention of aged-impaired (AI) rats were assessed in a Morris water maze behavioral task. A water maze is a pool surrounded with a novel set of patterns relative to the maze.
Cognitively impaired aged rats were implanted unilaterally with a cannula into the lateral ventricle. Stereotaxic coordinates were 1.0 mm posterior to bregma, 1.5 mm lateral to midline, and 3.5 mm ventral to the skull surface. After about a week of recovery, the rats were pre-trained in a water maze for 2 days (6 trials per day) to locate a submerged escape platform hidden underneath the surface of the pool, in which the escape platform location varied from day to day. No intracerebroventricular (ICV) infusion was given during pre-training.
After pre-training, rats received ICV infusion of either 100 μg 6,6 dimethyl-3-(3-hydroxypropyl)thio-1-(thiazol-2-yl)-6,7-dihydro-2-benzothiophen-4(5H)-one (n=6) in 5 μl DMSO or vehicle DMSO (n=5) 40 min prior to water maze training and testing. Training consisted of 8 trials per day for 2 days where the hidden escape platform remained in the same location. Rats were given 60 seconds to locate the platform with a 60 seconds inter-trial interval. The rats were given a probe test (120 seconds) 24 hr. after the end of training where the escape platform was removed. During the training, there were 4 blocks, where each block had 4 training trials.
During a test trial 24 hr after training, the escape platform was removed. The search/swim pattern of the rats was used to measure whether the rats remember where the escape platform was located during pre-trial training in order to test for the long-term memory of the rats. In this trial, “target annulus” is a designated area 1.5 times the size of the escape platform around the area where the platform was located during pre-trial training. “Opposite annulus” is a control area of the same size as the size of the target annulus, which is located opposite to the target annulus in the pool. If the rats had good long-term memory, they would tend to search in the area surrounding the location where the platform was during the pre-trial training (i.e., the “target” annulus; and not the “opposite” annulus). “Time in annulus” is the amount of time in seconds that the rat spent in the target or opposite annulus area. “Number (#) of crossings” in annulus is the number of times the rat swam across the target or opposite annulus area.

[3] = probe test 24 hr after training

T1 sequence (P19969 32-464 limits assumed): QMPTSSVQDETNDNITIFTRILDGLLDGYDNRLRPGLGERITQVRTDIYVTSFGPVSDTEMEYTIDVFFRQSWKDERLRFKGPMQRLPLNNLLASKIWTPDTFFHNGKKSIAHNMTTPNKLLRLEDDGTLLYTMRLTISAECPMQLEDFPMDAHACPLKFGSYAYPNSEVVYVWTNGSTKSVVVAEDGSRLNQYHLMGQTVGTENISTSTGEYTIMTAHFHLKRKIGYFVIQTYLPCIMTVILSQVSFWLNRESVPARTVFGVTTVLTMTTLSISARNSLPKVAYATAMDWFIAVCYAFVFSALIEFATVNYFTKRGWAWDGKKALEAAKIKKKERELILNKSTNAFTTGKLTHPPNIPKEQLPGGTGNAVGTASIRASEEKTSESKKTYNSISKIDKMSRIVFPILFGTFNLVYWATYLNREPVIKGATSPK
α5-containing GABAA R, sequence (P31644 32-462): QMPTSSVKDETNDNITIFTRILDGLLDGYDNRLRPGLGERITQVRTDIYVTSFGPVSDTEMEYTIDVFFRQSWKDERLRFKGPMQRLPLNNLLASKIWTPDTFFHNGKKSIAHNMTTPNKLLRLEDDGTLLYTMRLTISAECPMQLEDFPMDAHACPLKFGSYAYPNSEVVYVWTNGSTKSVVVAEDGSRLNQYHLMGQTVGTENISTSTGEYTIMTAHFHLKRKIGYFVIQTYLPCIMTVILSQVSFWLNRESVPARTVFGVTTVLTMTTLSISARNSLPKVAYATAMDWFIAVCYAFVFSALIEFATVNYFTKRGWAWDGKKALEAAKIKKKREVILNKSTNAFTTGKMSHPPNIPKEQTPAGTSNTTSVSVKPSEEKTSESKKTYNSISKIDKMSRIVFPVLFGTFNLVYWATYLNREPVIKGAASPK
α5-containing GABAA R, sequence (P28472 26-473 partner): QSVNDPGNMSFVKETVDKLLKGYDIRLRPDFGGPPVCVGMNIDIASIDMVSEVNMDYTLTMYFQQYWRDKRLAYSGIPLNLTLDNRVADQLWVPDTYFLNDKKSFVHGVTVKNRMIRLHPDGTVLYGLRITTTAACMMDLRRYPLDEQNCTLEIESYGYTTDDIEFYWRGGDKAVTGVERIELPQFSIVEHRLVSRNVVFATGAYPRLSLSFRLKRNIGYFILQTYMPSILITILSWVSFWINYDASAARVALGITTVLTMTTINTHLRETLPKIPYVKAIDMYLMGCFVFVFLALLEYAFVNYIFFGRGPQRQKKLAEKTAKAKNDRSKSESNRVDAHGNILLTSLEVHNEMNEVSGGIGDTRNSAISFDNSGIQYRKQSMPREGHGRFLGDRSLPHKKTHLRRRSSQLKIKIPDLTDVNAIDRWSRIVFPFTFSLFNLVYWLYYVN
α5-containing GABAA R, sequence (P18507 40-475): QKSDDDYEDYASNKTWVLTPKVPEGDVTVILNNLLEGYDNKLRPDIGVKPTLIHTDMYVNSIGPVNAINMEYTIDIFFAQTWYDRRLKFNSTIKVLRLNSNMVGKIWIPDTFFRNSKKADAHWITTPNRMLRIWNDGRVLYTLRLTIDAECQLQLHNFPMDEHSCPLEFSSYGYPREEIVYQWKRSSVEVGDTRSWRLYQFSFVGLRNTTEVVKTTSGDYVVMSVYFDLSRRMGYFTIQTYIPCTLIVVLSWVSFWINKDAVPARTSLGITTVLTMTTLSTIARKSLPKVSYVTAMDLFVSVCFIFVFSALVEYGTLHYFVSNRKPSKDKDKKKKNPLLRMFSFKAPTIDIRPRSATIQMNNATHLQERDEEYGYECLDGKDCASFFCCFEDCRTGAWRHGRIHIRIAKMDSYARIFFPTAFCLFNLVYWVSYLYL

Row | SMILES | memory performance relative to vehicle control (aged-impaired (AI) rats [1]; 3 mg/kg, four-hour delay) | memory performance relative to vehicle control (aged-impaired (AI) rats [1]; 10 mg/kg, four-hour delay) | Ro 15-4513 binding in hippocampus (GABAA α5 receptor; i.v.) | Ro 15-4513 levels/binding in cerebellum (GABAA α5 receptor; i.v.) | GABAA α5 receptor occupancy (GABAA α5 receptor; 10 mg/kg, i.v.) [%] | average no. of errors ± SEM, retention test (aged-impaired (AI) rats [1]; 3 mg/kg ip, two-hour delay) | memory performance relative to vehicle control (aged-impaired (AI) rats [1]; 3 mg/kg ip, two-hour delay) | % RO (L-655,708 Method) (GABAA α5 receptor; 0.01 mg/kg, i.v.) [%] | % RO (L-655,708 Method) (GABAA α5 receptor; 0.1 mg/kg, i.v.) [%] | % RO (L-655,708 Method) (GABAA α5 receptor; 1 mg/kg, i.v.) [%] | % RO (L-655,708 Method) (GABAA α5 receptor; 10 mg/kg, i.v.) [%] | GABAA α5 receptors occupied (GABAA α5 receptor; at exposures behaviorally active in aged-impaired rats, hippocampus) | ED50 of receptor occupancy, ratio method (GABAA α5 receptor; i.v.) [mg/kg] | receptor occupancy at 10 mg/kg (GABAA α5 receptor; rat, iv, 10 mg/kg) [%] | α5 in vitro efficacy (α5-containing GABAA R) | time to find the escape platform (aged-impaired (AI) rats [2]; beginning of training (block 1)) | time to find the escape platform (aged-impaired (AI) rats [2]; end of training (block 4)) | number of crossings of target annulus compared to opposite annulus (aged-impaired (AI) rats [2]; [3]) | time in target annulus compared to opposite annulus (aged-impaired (AI) rats [2]; [3])
1 | CCOC(=O)c1ncn2c1Cn1c(C)nnc1-c1cc(OC)ccc1-2 [ethyl 3-methoxy-7-methyl-9H-benzo[f]imidazo[1,5-a][1,2,4]tri] | significantly improved memory performance | significantly improved memory performance | reduced Ro 15-4513 binding in hippocampus | without affecting cerebellum levels of Ro 15-4513 | > 90 |  |  |  |  |  |  |  |  |  |  |  |  |  | 
2 | COC(=O)c1c(-c2ccccc2)cnnc1-c1ccccc1 [methyl 3,5-diphenylpyridazine-4-carboxylate] |  |  | dose-dependently reduced Ro 15-4513 binding in hippocampus; also recorded: blocked the binding of Ro154513 in the hippocampus | without affecting cerebellum levels of Ro 15-4513; also recorded: did not affect binding of Ro15413 in the cerebellum |  | 1.31±0.40 | significantly improved memory performance | 19.2 | 16.4 | 38.5 | 110.0 | about 32% | 1.8 | > 90 | +27 |  |  |  | 
3 | CC1(C)CC(=O)c2c(SCCCO)sc(-c3nccs3)c2C1 [6,6 dimethyl-3-(3-hydroxypropyl)thio-1-(thiazol-2-yl)-6,7-dihydro-2-benzothiophen-4(5H)-one] |  |  |  |  |  |  |  |  |  |  |  |  |  |  |  | about 24 seconds | about 9.6 seconds | crossed the “target annulus” more often | spent significantly more time in the target annulus
